From patent US12043845B2, “Methods of cell culture” (Polpharma Biologics S.A., priority 2017, dated 2024) come the findings set out here.

The subject of data set [1] is CHO cells producing ustekinumab. In words: Cation exchange chromatography of acidic, main and basic species of ustekinumab from CHO cells cultured with citrulline. Format: cell-based, Chinese hamster. On the procedure:
(§1) The stirred tank reactors (STRs) were inoculated with the cell line C20 or with the cell line C69 in pre-heated production medium (PolCHO-P, available from GE healthcare, Catalogue Number G3258.3050), at a target density of 1.0*10^6 viable cells (vc) mL^−1. From day 3 on, 4.2% (v/v) of feed A (available from GE healthcare, Catalogue Number G3259.3010) per day was added at a continuous rate over 24 hours (equivalent to 2.9 g glucose L^−1 day^−1). If required, a D-glucose solution was used to increase glucose concentration in the broth to 4 g L^−1. In addition, 0.42% (v/v) of feed B (available from GE healthcare, Catalogue Number G3260.0001) was added every day as a bolus. For cell line C20 different concentrations of citrulline (5 g/l, 8 g/l and 12 g/l) were added to the medium and to feed A. For cell line C69 10 g/l citrulline in combination with 40 mM sucrose were added to the medium and to feed A.
Additional samples of approximately 30 mL were collected on days 6, 10 and 14, centrifuged and stored in −80° C. for product quality analysis. […]
(§2) For data evaluation the Waters Empower 3 software was used. The sample composition was determined by detecting peaks based on their retention time and the relative proportions of each peak were calculated from the peak areas. […]

Data set [2] relates to CHO cells producing natalizumab. In words: Cation exchange chromatography of acidic and basic species of natalizumab from CHO cells cultured with citrulline. Format: cell-based, Chinese hamster. The conditions noted are these: increasing concentrations of citrulline (8, 12 g/l), 14 days. As to the method: Cell lineC4 expressing natalizumab was cultured in 15 ml AMBR microbioreactors. Dissolved oxygen tension (DOT) was controlled at 40% and the temperature maintained at 36.8° C. during the first 4 days with a temperature shift to 33° C. on day 5 for the rest of the cultivation time. The targeted viable cell concentration at inoculation was 1.0×10^6±0.1 viable cells mL^−1. The post inoculation volume of the production stage bioreactors was set to 15 mL in the microbioreactors of the AMBR system. The pH set point was 7.0±0.1. The basal medium was PolCHO-P CD (available from GE healthcare). From day 3 on, 4.2% (v/v) of PolCHO feed A (available from GE healthcare) per day was added as a bolus. If required, a D-glucose solution was used to increase glucose concentration in the broth to 4 g L^−1. In addition, 0.42% (v/v) of PolCHO feed B (available from GE healthcare) was added every day as a bolus. […]
The separation was carried out by Cation Exchange High Performance Liquid Chromatography on the UPLC H-Class Bio System using UV detection under Empower™ Software control. […] The column temperature was 40° C. and elution was monitored at 220 nm.
as §2

In data set [3] the test system is CHO cells producing ustekinumab. In words: Cell diameter by LUNA cell counter. Format: cell-based, Chinese hamster. The conditions noted are these: citrulline added, vs control without citrulline (FIG. 2). As to the method: as §1
b) In another set of experiments cell line C20 expressing ustekinumab was selected. This cell line was thawed and cultured in 25 mL shake flasks (SFs) containing PolCHO-P CD (GE Healthcare) medium with methotrexate and geneticin. […] Every day before feeding, glucose concentration was measured. […]
The viable cell concentration, viability and cell size were determined using a LUNA™ cell counter with the following protocol: […]

For data set [4] the test system is unchanged. Put plainly: Specific production rate (Qp) for ustekinumab. The note with it: citrulline added, vs control without citrulline (FIG. 3). Format: cell-based, Chinese hamster. On the procedure:
as §1, with “For cell line C20 different concentrations of citrulline (5 g/l, 8 g/l and 12 g/l) were added to the medium and to feed A. For cell line C69 10 g/l citrulline in combination with 40 mM sucrose were added to the medium and to feed A.” left out
b) In another set of experiments cell line C20 expressing ustekinumab was selected. […] Every day before feeding, glucose concentration was measured. […]
(§3) The Octet system performs label-free quantitation of antibodies, proteins, peptides, DNA and other biomolecules and provides kinetic characterization of biomolecular binding interactions. […] The binding rates of the test samples are measured and interpolated from a standard curve generated from a similar or equivalent protein to determine the concentration of the protein. […]

Data set [5] has as its system CHO cells producing omalizumab. In words: Specific production rate (Qp) for omalizumab. The class given is cell-based, Chinese hamster. The conditions noted are these: citrulline added, vs control without citrulline (FIG. 8). As to the method: CHO cell line 230×846 expressing the anti-IgE antibody omalizumab was selected for this experiment. The cell line was thawed and cultured in 25 mL shake flasks (SFs) containing PowerCHO-2 CD medium (Lonza) with 4 mM L-glutamine and 1% (v/v) Fe-citrate solution. Subsequently, the cells were expanded in SFs with increasing volume as seed train. 12 SFs were inoculated at a concentration of 0.5·10^6 vc mL^−1. The SFs were inoculated in 25 mL PowerCHO-2-CD medium containing L-glutamine and Fe-citrate and placed on a shaking plateau in an incubator at 37° C. On the day of inoculation, 2% (v/v) of BC feed and 0.2% (v/v) of cys/tyr feed was given. The glucose concentration was measured every day before feeding. From day 3 on, feeding was done based on glucose consumption of the previous day, aiming for a glucose concentration of 3.5 g/L. Different concentrations of citrulline were added to the medium and BC feed.
as §3

The test system of data set [6] is CHO cells producing ustekinumab. In words: Rapifluor-MS released N-glycan analysis of ustekinumab. Format: cell-based, Chinese hamster. The note with it: 5 g/l and 8 g/l citrulline, 12 or 14 days, vs control. As to the method: The shake flasks were inoculated in 25 mL Actipro medium (available from GE healthcare, Catalogue number SH31039.01) and placed on a shaking plateau in an incubator at 37° C. On the day of inoculation, 2% (v/v) of Cell boost 7A (available from GE healthcare, Catalogue number SH31026.02) and 0.2% (v/v) of Cell boost 7B (available from GE healthcare, Catalogue number SH31027.01) was given. From day 3 on, a flat feed was given of 4% (v/v) of Cell boost per day. Every day before feeding, glucose concentration was measured. If required, a D-glucose solution was used to increase glucose concentration in the broth to 4 g L^−1, before feeding. In addition, 0.4% (v/v) of Cell boost 7B was added every day as a bolus. Different concentrations of citrulline (5 g/l and 8 g/l) were added to the medium and to Cell boost 7A. At day 5 after inoculating the cells into the cell culture medium the temperature of the cell culture was reduced to 31° C.±0.2° C.
The N-glycan composition and relative distribution thereof was analyzed using the Rapifluor MS N-Glycan Kit purchased from Waters, using the manufacturer's instructions. It comprises denaturation and release of N-linked glycans by PNGase F from Protein A purified material. The released glycans are then labeled with the proprietary Rapifluor label, which contains a fluorescent moiety and a proton capturing moiety. […]

The subject of data set [7] is CHO cells. Put plainly: Citrulline concentration in culture medium during fermentation (UPLC-MS). The class given is in vitro ADME, Chinese hamster. The note with it: cell line C69, stirred tank reactor, 10 g/l citrulline, days 8, 11, 13, 14. On the procedure:
Additional samples of approximately 30 mL were collected on days 6, 10 and 14, centrifuged and stored in −80° C. for product quality analysis. For the experiments with cell line C69 samples were also taken to determine the concentration of citrulline at different time points (days 8, 11, 13 and 14) during the bioreactor run.
To determine if citulline can be metabolised by CHO cells clarified samples were taken from the stirred tank reactor run with clone C69. Quantification of the concentration of citrulline during the culture was standardized using a 10 g/l citulline solution in WFI and the PolCHO medium was used as a negative control.
About 1 mL of culture medium was centrifuged in an Eppendorf centrifuge at 15000 rpm and at 4° C. for 10 minutes. […]
Using reference sample, the molecular mass of citrulline was confirmed by UPLC-MS to be 175.08 Da. The concentration of citrulline in the reference sample was 55.84 mM as determined by qNMR. The citrulline concentrations in culture medium samples of days 8, 11, 13 and 14 were determined by UPLC-MS analysis after appropriate dilution of the samples and by using external calibration lines prepared using the reference sample. No citrulline was detected in POLCHO medium (see FIG. 11).

The structures appear in SMILES notation.

On to `NC(=O)NCCC[C@H](N)C(=O)O` [citrulline], for which the “basic peaks of ustekinumab” value in data set [1] (12 g L^-1 citrulline, day 14, control 11%) was found to be 22%. The “acidic 2 peaks of ustekinumab” value in data set [1] (increasing concentrations of citrulline (5, 8, 12 g/l), day 14, vs control) was “decreased dose-dependently”. In data set [2], the “sum of acidic peaks of natalizumab” value is “decreased dose-dependently” and the “sum of basic peaks of natalizumab” value is listed as “increased dose-dependently”. For the same compound, in data set [3], the “diameter of the cells” value was “increases”. For the same compound, in data set [4], the “specific production rate Qp for ustekinumab” value was “increases”. In addition, the “specific production rate Qp for omalizumab” value in data set [5] is on record as “same increase”. Also, in data set [6], the “G0F, G1F, G1'F, G2F and sum of sialylated species” value was “no differences”. For the same compound, the “concentration of citrulline during the fermentation” value in data set [7] is listed as “does not change significantly”.
